Here are results for one compound from US9394520B2, “Expansion of hematopoietic stem cells” (University of Rochester, priority 2006, dated 2016).

“Also recorded” adds a separate entry of the source.

Assay [1] concerns intermediate progenitors of hematopoietic stem cells. Kind of assay: Colony forming unit-cell (CFU-C) assay of bone marrow mononuclear cells from treated mice. The class given is in vivo. The source says: FIG. 8 is a graph showing that intermediate progenitors of hematopoietic stem cells are not increased by PGE2 treatment. Therefore, PGE2 specifically increases HSCs. The bone marrow mononuclear cells from mice treated with vehicle and PGE2 using colony forming unit-cell (CF-C) activity in vitro. […] Peripheral white blood cell and hematocrit levels were not changed in PGE2 vs. vehicle treated mice at 16 days (WBC counts: vehicle averaged 5.75±0.20×10^3/μl; PGE2 averaged 4.72±0.61×10^3/μl) (Hematocrit: vehicle averaged 42±1%; PGE2 averaged 43±2%) (n=6 for each treatment group).
FIG. 8 is a graph showing that intermediate progenitors of hematopoietic stem cells are not increased by PGE2 treatment. Therefore, PGE2 specifically increases HSCs. The bone marrow mononuclear cells from mice were treated with vehicle and PGE2 to determine if there was an increase in intermediate progenitors in response to PGE2 using the colony forming unit-cell (CFU-C) assay. […] In addition, peripheral white blood cell and hematocrit levels were not changed in PGE2 vs. vehicle treated mice at 16 days (WBC counts: vehicle averaged 5.75±0.20×10^3/μl; PGE2 averaged 4.72±0.61×10^3/μl) (Hematocrit: vehicle averaged 42±1%; PGE2 averaged 43±2%) (n=6 for each treatment group).
The opposite limb of the same mice was used for flow cytometric analysis, in vitro progenitor CFU-C assays and competitive repopulation. […]

Another assay concerns hematopoietic stem cells. As to the kind of experiment: HSC frequency by flow cytometric analysis of lin-, sca+, kit+ (LSK/KSL) bone marrow cells. The class given is in vivo, mice. As to the method: FIG. 7A is a graph showing KSL frequency at 4 days. FIG. 7B is a graph showing KSL frequency at 8 days. FIG. 7C is a graph showing KSL frequency at 12 days. FIG. 7D is a graph showing KSL frequency at 16 days.
FIG. 9 is a graph showing the percent of HSCs in total bone marrow following in vivo administration of PGE2 in C57bl/6 mice. Eight to ten week old WT C5bl/6 mice given IP injections twice daily for 16 days of either 6 mg/kg PGE2 or vehicle (n=4 for each group). The left hind limb of each mouse was harvested, the bone marrow flushed out and the cells stained with lineage markers, sca-1 and c-kit. DAPI was used for a viability stain. The lin−, sca+, kit+ population was gated using FlowJo software for both PGE2 treated and vehicle treated samples. There was a 66% increase in lin−, sca+, kit+ (LSK) cells in PGE2 vs. vehicle treated mice (p=0.0093). As used herein, LSK and KSL frequency are used interchangeably.
Eight to ten week old FVB/N male mice were injected intraperitoneally once or twice daily for 16 days with either PGE2 (6 mg/kg body weight) or vehicle. Left hind limbs were harvested, fixed, decalcified, and processed. Right hindlimbs were harvested at the same time. The bone marrow was flushed and stained for FACS analysis with scal, ckit, and lineage marker antibodies.
In order to determine if the number of HSCs was increased in vivo by PGE2, eight to ten week old FVB/N mice were given daily IP injections for 16 days of either 6 mg/kg PGE2 or Vehicle. The left hind limb of each mouse was harvested, the bone marrow was flushed out, and the cells were stained with lineage markers, sca-1 and c-kit. DAPI was used for a viability stain. The lin−sca+ckit+population was gated using FlowJo software (FlowJo, Ashland, Oreg.) for both PGE2 treated and VEH treated samples. […] The same procedure was performed on C57bl/g mice.

In another assay the test system is Jagged1. As to the kind of experiment: Jagged1 protein by Western blot in UMR106 cells. The class given is cell-based. Particulars: UMR106 cells after treatment with PGE2, Western blot, antibody C-20. As to the method:
UMR 106 cells were serum starved for 24 hours and then treated with a single dose of vehicle (controls) or PGE2 at a concentration of 10^-7 M. RNA was collected from both control and treated samples to assess the fold change in Jagged1 mRNA by real time RT-PCR analysis corrected for by beta-actin. FIG. 1B is a Western blot showing total protein that was collected from both control and treated samples exposed to Jagged1 antibody, C20. Positive control (+ctr) was provided by HS27a cells, a human stromal cell line with high levels of Jagged1 protein, while HS5 cells from a human stromal cell line with minimal Jagged1 levels were used as a negative control. FIG. 2A is a graph showing that inhibition of PKA blocks PGE2-dependent increase of Jagged1 in UMR 106 cells. UMR106 cells were serum starved for 24 hours. They were pre-treated with H89 for 30 minutes followed by a single dose of PGE2 at 10^-7 M or vehicle. RNA was collected from both control and treated samples to assess the fold change in Jagged1 RNA by real time RT-PCR analysis corrected for by β-actin. […] UMR106 cells were serum starved for 24 hours. […] Total RNA was extracted and analyzed by real time RT-PCR, normalizing for β-actin expression and t=0. Total protein was analyzed by Western blots performed using the […] system (Invitrogen, Carlsbad, Calif.). […]
(In general: A western blot detects proteins with antibodies after separation by electrophoresis.)

In the case of `CCCCC[C@H](O)/C=C/[C@H]1[C@H](O)CC(=O)[C@@H]1C/C=C\CCCC(=O)O` [PGE2, Prostaglandin E2], the CFU-C frequency result in assay [1] (BMMC from C57Bl/6 mice treated 16 days, Example 2) is recorded as “No evidence of PGE2 effects”; in assay [1] (BMMC from treated mice, Example 1), “did not increase”. Further, the “increase in lin−, sca+, kit+ (LSK) cells vs. vehicle” value in the assay on hematopoietic stem cells (C57bl/6 mice, 6 mg/kg IP twice daily for 16 days, n=4) was determined as 66%. Moreover, the “percent of HSCs (KSL) in total bone marrow” value with hematopoietic stem cells (FVB/N mice, 6 mg/kg IP daily, 4 to 16 days, vs vehicle, 6 mg/kg) is on record as “trend towards an increase; also recorded: increased significantly”. Further, the “increase of HSC enriched LSK subpopulation” value in the assay with hematopoietic stem cells (adult C57Bl/6 male mice, 16 days, n=8 per group) came out at 3.5 fold. The Jagged1 protein result with Jagged1 was “increased”.
